IC50 data for one molecule are collected here from BindingDB's records for patent US8829190 (Leo Pharma, 2014).

This assay has as its target cAMP-specific 3',5'-cyclic phosphodiesterase 4D (Homo sapiens, UniProt Q08499). As to the kind of experiment: Binding Assay. Here is the method: Human recombinant PDE4 (Gene bank accession no NM006203) was incubated for 1 hour with the test compound at concentrations up to 10 μM, with cAMP (1x10-5M), and with a low amount (0.021 MBq) of radioactively labelled cAMP. At the end of the incubation, the cleavage of the substrate was evaluated by the binding of the AMP product to SPA beads, which generate chemo luminescence when bound to the radioactive tracer. The AMP product inhibited the binding of the radioactive tracer to the beads, and the luminescent signal was competed.

Chain of cAMP-specific 3',5'-cyclic phosphodiesterase 4D (Q08499 whole entry): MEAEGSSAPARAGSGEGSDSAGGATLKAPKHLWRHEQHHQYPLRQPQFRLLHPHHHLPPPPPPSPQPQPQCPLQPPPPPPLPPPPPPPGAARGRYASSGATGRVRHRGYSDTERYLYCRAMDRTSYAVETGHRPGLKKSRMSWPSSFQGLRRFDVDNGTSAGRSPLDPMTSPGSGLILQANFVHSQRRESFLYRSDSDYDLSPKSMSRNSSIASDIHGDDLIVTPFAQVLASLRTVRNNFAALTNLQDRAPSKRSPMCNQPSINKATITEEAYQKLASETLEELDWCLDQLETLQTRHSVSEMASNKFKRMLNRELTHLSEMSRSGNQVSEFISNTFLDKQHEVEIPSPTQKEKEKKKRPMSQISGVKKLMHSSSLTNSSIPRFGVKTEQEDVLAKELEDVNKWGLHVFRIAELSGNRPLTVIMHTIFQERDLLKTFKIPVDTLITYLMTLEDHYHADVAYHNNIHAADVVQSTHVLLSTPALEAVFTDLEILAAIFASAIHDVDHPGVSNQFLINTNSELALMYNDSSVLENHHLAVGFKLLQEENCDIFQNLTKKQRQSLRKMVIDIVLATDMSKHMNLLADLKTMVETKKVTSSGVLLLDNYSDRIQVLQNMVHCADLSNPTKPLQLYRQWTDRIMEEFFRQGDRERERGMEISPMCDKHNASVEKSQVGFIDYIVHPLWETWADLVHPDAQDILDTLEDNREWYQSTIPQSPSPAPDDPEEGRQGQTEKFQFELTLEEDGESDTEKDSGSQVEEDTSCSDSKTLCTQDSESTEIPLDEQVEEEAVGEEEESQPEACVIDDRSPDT

The IC50 is the point on the concentration scale where inhibition reaches its midpoint. For the molecule `COc1ccc(C(=O)Cc2ccccc2Cl)n2nc(C3CC3)nc12` [US8829190, 127], the IC50 stood at 46 nM.
